Consider 67 molecules from PubChem BioAssay AID179 (DTP/NCI, 2004).

In this test the test system is CEM cells HIV-1 protection, formazan growth assay. Briefly: NCI AIDS Antiviral Assay. Conditions: for IC50: measured here: growth of uninfected CEM cells. In a few lines:
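Five concentrations of each compound were applied to infected and uninfected human CEM cells. Protection from HIV-1 was judged from growth measured with a soluble formazan assay.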

The source made the active and inactive calls.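 How the source made its calls: active means compounds giving half or more protection of infected cells from virus-caused growth loss, again on retest; inactive means the rest.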 Where a SMILES comes first, the peptide text is derived from it.

For the molecule `COC(=O)c1cc(C)ccc1/C=C1\Cc2c(C)cc(C)cc2C1=O`, the outcome was inactive.
In the case of `S=c1[nH]nc(Nc2ccc(Cl)cc2)s1`, the EC50 was > 200 µM and the IC50 is 79.4 µM.
On the same counts, the results for `CCCCN(O)[C@@H]1CC(n2cc(C)c(=O)[nH]c2=O)OC1CO[Si](C)(C)C(C)(C)C` (some centres not stated) are > 200 µM and 83.2 µM.
On the same counts, the results for `CCc1c(Cc2ccccc2)n(COCC[Se]c2ccccc2)c(=O)[nH]c1=O` are 4.27 µM and 28.8 µM.
Turning to `CCCCCCCCCCCCCCCCCC(=O)OC[C@H](COP(=O)(O)OCCNC(=O)CCC(=O)NCCC=C(c1cc(Cl)c(OC)c(C(=O)OC)c1)c1cc(Cl)c(OC)c(C(=O)OC)c1)OC(=O)CCCCCCCCCCCCCCCCC`, the EC50 is > 50.1 µM and the IC50 was > 50.1 µM.
Regarding `Cc1ccccc1NCN1C(=O)S/C(=C2\C(=O)N(C)c3ccc(Br)cc32)C1=O`, the EC50 was > 200 µM and the IC50 came out at 11.7 µM.
For the molecule `COC(=O)C1=C(C(=O)OC)SC(=C2SC3=C(SC(=C4SCCS4)S3)S2)S1`, the EC50 was > 100 µM and the half-maximal inhibitory concentration (IC50) is > 100 µM.
On to `O=C(c1cccc(O)c(=O)c1)C1OC1c1ccccc1` (configuration not stated), for which the EC50 is > 145 µM and the IC50 was determined as 2.82 µM.
As for `CC(=O)NC(C=O)C(O[C@H](C)C(=O)NC(C)C(=O)NC(CCC(N)=O)C(=O)OCc1ccccc1)C(O)C(O)COC(=O)CCCCCNc1cccc2[nH]c3ccccc3c(=O)c12` (some centres not stated), the EC50 was > 204 µM and the IC50 is 126 µM.
As for `Cc1cc(=O)[nH]c(CNC(=O)c2ccc3ccccc3c2)n1`, the EC50 was > 123 µM and the concentration for half-maximal inhibition (IC50) is > 123 µM.
For `CCO/S(=N/S(=O)(=O)c1ccccc1)c1ccccc1[N+](=O)[O-]` (configuration not stated), the EC50 is > 708 µM and the half-inhibitory concentration (IC50) was 182 µM.
Consider `O=C(N=C1SCCN1C(=O)C(C(F)(F)F)C(F)(F)F)C(C(F)(F)F)C(F)(F)F`, for which the EC50 is > 200 µM and the half-inhibitory concentration (IC50) is > 200 µM.
Turning to `COc1ccc(-c2c3c(n(C4OC(COC(C)=O)C(OC(C)=O)C(OC(C)=O)C4OC(C)=O)c(=S)c2C#N)CCCC3)cc1` (configuration not stated), the EC50 is > 200 µM and the half-maximal inhibitory concentration (IC50) stood at 89.1 µM.
On to `CC(CN(C)C)OC(=O)c1cc2ccccc2n1Cc1ccccc1` (configuration not stated), for which the EC50 was > 200 µM and the IC50 amounted to 87.1 µM.
As for `Nc1ncnc2c1ncn2C1CCC(CP(=O)(O)O)C1` (configuration not stated), the EC50 was > 200 µM and the IC50 is > 200 µM.
With `Cc1ccnn1CCc1ccc(Cl)cc1Cl`, the EC50 is > 200 µM and the half-inhibitory concentration (IC50) was determined as 95.5 µM.
On to `CN(CCN)[C@H](CSSC[C@@H](c1ccccc1O)N(C)CCN)c1ccccc1O`, for which the EC50 is > 200 µM and the IC50 is 17.8 µM.
`O=C1CCCC/C1=C1/SC(=Nc2ccccc2)C(=Nc2ccccc2)N1c1ccccc1`: the EC50 was > 200 µM and the IC50 was > 200 µM.
For the molecule `C=C(NC(=O)C(=C)NC(=O)c1csc(C2=NC3c4csc(n4)C4NC(=O)c5csc(n5)C(C(C)(O)C(C)O)NC(=O)C5CSC(=N5)/C(=C/C)NC(=O)C(C(C)O)NC(=O)c5csc(n5)C3(CC2)NC(=O)C(C)NC(=O)C(=C)NC(=O)C(C)NC(=O)C(C(C)CC)NC2C=Cc3c(C(C)O)cc(nc3C2O)C(=O)OC4C)n1)C(N)=O` (configuration not stated), the 50% effective concentration (EC50) stood at 8.91 µM and the half-maximal inhibitory concentration (IC50) is 43.7 µM.
On the same counts, the results for `O=[N+]([O-])c1c(Cl)cccc1-c1c[nH]c(Cl)c1Cl` are > 123 µM and 20.4 µM.
On the same counts, the results for `O=C(CC1Sc2ccccc2NC1=O)Nc1ccc([N+](=O)[O-])cc1[N+](=O)[O-]` (configuration not stated) are > 67.6 µM and > 67.6 µM.
For the molecule `C[CH2][Sn]([CH2]C)([O]C(=O)c1cc(OC)c(OC)c(OC)c1)[O][Sn]([CH2]C)([CH2]C)[O]C(=O)c1cc(OC)c(OC)c(OC)c1`, the EC50 was > 6.61 µM and the IC50 was > 6.61 µM.
Take `CC1(C)CC2(C)CC1CC2O` (configuration not stated): the EC50 is > 200 µM and the IC50 was > 200 µM.
For `COc1cc2c(cc1OC)C1[C@@H](c3ccccc3)OCN1CC2` (some centres not stated), the result was inactive.
For the molecule `CN(Cc1ccccc1)C(=NC#N)N(C)Cc1ccccc1`, the EC50 was > 170 µM and the IC50 was 129 µM.
Regarding `CC(c1ccccc1)N1OC1(c1ccccc1)c1ccccc1` (configuration not stated), the EC50 is > 105 µM and the concentration for half-maximal inhibition (IC50) was found to be 14.5 µM.
Take `N#COc1ccc(Oc2ccc(OC#N)cc2)cc1`: the EC50 was > 141 µM and the half-maximal inhibitory concentration (IC50) came out at 45.7 µM.
As for `O=[N+]([O-])c1ccc(CCc2ccc([N+](=O)[O-])cc2S(=O)(=O)O)c(S(=O)(=O)O)c1`, the outcome was inactive.
On to `CC(C)OP(=O)(OC(C)C)C(C(C)C)N(C)/C(N)=N\C1=NC(C(F)(F)F)(C(F)(F)F)N=C(C(C(F)(F)F)C(F)(F)F)O1` (configuration not stated), for which the EC50 is > 200 µM and the 50% inhibitory concentration (IC50) was determined as 0.0631 µM.
As for `NC(=S)N/N=C(/C(=O)Nc1nc2ccc([N+](=O)[O-])cc2s1)C1C(=O)NC(=S)NC1=O`, the EC50 was > 15.5 µM and the half-inhibitory concentration (IC50) is > 15.5 µM.
In the case of `CCOC(=O)/C(C#N)=C1/c2ccccc2C(=O)C1(Cl)C(N)=O` (configuration not stated), the EC50 was > 200 µM and the IC50 came to 28.8 µM.
Take `Cn1c2c(O)c(O)ccc2c(=O)c2c(O)cc3c(c21)C=CC(C)(C)O3`: the EC50 was > 200 µM and the IC50 is > 200 µM.
On to `O=C1NC(=O)C(=Cc2ccccc2Cl)C(=O)N1`, for which the EC50 was > 269 µM and the IC50 came out at 2.63 µM.
Turning to `CCOC(=O)CNC(=O)N(CC)C12CC3CC(CC(C3)C1)C2`, the EC50 is > 200 µM and the IC50 was found to be 129 µM.
In the same order, the values of `Cc1cnoc1/N=C1\C=C(Nc2oncc2C)C(=O)c2ccccc21` are > 4.37 µM and > 4.37 µM.
In the same order, the values of `CC(=O)ON1CCC(n2cc(C)c(=O)[nH]c2=O)C1` (configuration not stated) are > 200 µM and > 200 µM.
Take `[N-]=[N+]=NC1CC(n2cc(Cc3ccccc3)c(N)nc2=O)OC1CO` (configuration not stated): the EC50 is > 724 µM and the IC50 was > 724 µM.
In the case of `O=C(O)c1ccc(C(=O)c2ccccc2C(=O)O)cc1C(=O)O`, the concentration giving a half-maximal response (EC50) stood at 19.1 µM and the 50% inhibitory concentration (IC50) was > 200 µM.
On to `CC(C)NC(=O)OCc1c(COC(=O)NC(C)C)n(C)c2c1ccc1cc(Cl)c(Cl)cc12`, for which the EC50 was > 200 µM and the IC50 was 2.95 µM.
On to `N#CC1=C(N)N(c2ccccc2)C(c2ccccc2)C1(C#N)C#N` (configuration not stated), for which the EC50 is > 200 µM and the IC50 came to 14.1 µM.
Turning to `CC(=O)Nc1ccc2c(c1)C(c1ccccc1)=NCC(=O)N2`, the EC50 is > 200 µM and the IC50 stood at 55 µM.
`CC(NC(CC12CC3CC(CC(C3)C1)C2)C(N)=O)c1ccccc1` (configuration not stated): the EC50 was > 200 µM and the IC50 was determined as 34.7 µM.
As to `Cc1cn(C2OC(COC(=O)c3ccccc3)C(OC(=O)c3ccccc3)C2I)c(=O)[nH]c1=O` (configuration not stated), the EC50 was > 200 µM and the IC50 was 37.2 µM.
In the same order, the values of `COc1ccc2oc3cc(O)cc(OC)c3c(=O)c2c1O` are > 200 µM and 145 µM.
On to `Cc1ccc(NC(=O)C(=O)C(C(=O)/C=C/c2ccccc2)C2OC(=O)c3ccccc32)c(C)c1` (configuration not stated), for which the EC50 was > 427 µM and the 50% inhibitory concentration (IC50) stood at 63.1 µM.
Take `Cc1nn2c(=O)c([N+](=O)[O-])c(/C=C/c3ccccc3)nc2s1`: the EC50 was > 200 µM and the IC50 was 3.31 µM.
As to `N#Cc1c(/N=C/c2ccccc2Cl)sc2c1CCC2`, the EC50 was > 200 µM and the IC50 was > 200 µM.
As for `CN(C)c1ccc(C2CC(c3ccc4ccccc4c3O)=NN2c2ccc([N+](=O)[O-])cc2[N+](=O)[O-])cc1` (configuration not stated), the EC50 is > 151 µM and the IC50 was found to be 33.1 µM.
Regarding `COc1cc(C)c2c(c1C=O)Oc1c(c(C)c(O)c3c1C(O)OC3=O)OC2=O` (configuration not stated), the EC50 is > 93.3 µM and the IC50 was found to be 53.7 µM.
In the same order, the values of `N#CC1(C#N)[C@@H]2CCC=C(Sc3ccccc3)[C@@H]21` are > 200 µM and 9.12 µM.
In the case of `CCOP(=O)(OCC)C(Nc1ccc(C(=O)O)cc1)c1ccc(C(Nc2ccc(C(=O)O)cc2)P(=O)(OCC)OCC)cc1` (configuration not stated), the EC50 is > 200 µM and the half-maximal inhibitory concentration (IC50) is > 200 µM.
Take `CN(C)S(=O)(=O)C(c1ccccc1)C1(O)CCCCC1` (configuration not stated): the EC50 is > 437 µM and the IC50 is > 437 µM.
For `O=C(Nc1ccccc1)c1cc2c(cc1Cl)Sc1nccn1S2(=O)=O`, the EC50 was > 200 µM and the half-maximal inhibitory concentration (IC50) is > 100 µM.
Take `O=C(/C=C/c1cccs1)c1ccc([N+](=O)[O-])cc1`: the EC50 was > 200 µM.
For the molecule `CCN(CC)CC.CCOc1ccc(NC(=O)N=C=[N-])cc1.[CH-]1CCCCC1.[CH-]1CCCCC1.[CH-]1CCCCC1.[Cl-].[Sn+4]`, the outcome was inactive.
`CC1=C(C(=O)NNC(=O)CC#N)CC(C(=O)NNC(=O)CC#N)=C(C)N1`: the EC50 is > 200 µM and the 50% inhibitory concentration (IC50) stood at 123 µM.
Take `CNC(=O)CNC(=O)C(NC(=O)CNC(=O)C1CCCN1C(=O)C(C)NC(=O)C(NC(C)=O)C(C)C)C(C)C` (configuration not stated) (Ac-VAPGVG-NHMe; configuration not given here): the EC50 is > 200 µM and the IC50 is > 200 µM.
As for `CC1NCCc2c1[nH]c1ccc(O)cc21` (configuration not stated), the result was inactive.
With `O=C(O)c1ccccc1-c1c2ccc(=O)c(O)c-2oc2c(O)c(O)ccc12`, the concentration giving a half-maximal response (EC50) is > 25.1 µM and the IC50 was 8.71 µM.
In the same order, the values of `CC1(C)C2CC(O)C1CCC2=O` (configuration not stated) are > 200 µM and > 200 µM.
As to `CN1CCCNC(=S)C1`, the outcome was inactive.
For the molecule `CN(C)NC(=S)C(F)(F)C(F)(F)F`, the EC50 was > 200 µM and the IC50 came to 10.2 µM.
With `[N-]=[N+]=NC1=NNC2(C(=O)N1)c1ccccc1-c1ccccc12`, the EC50 was > 100 µM and the IC50 is > 100 µM.
`CCP(=O)(CC)C(Cl)(Cl)C(O)C(C)(C)C` (configuration not stated): the EC50 was > 200 µM and the 50% inhibitory concentration (IC50) is > 200 µM.
Take `COc1ccc(/C=N/Nc2nnc3c4ccccc4n(C)c3n2)cc1`: the EC50 is > 200 µM and the half-maximal inhibitory concentration (IC50) is > 200 µM.
`COc1cccc(NC(=O)c2c(SC)n[nH]c2N)c1`: the EC50 was > 200 µM and the IC50 is > 200 µM.
In the case of `NS(=O)(=O)c1ccc(SSc2ccc(S(N)(=O)=O)cc2[N+](=O)[O-])c([N+](=O)[O-])c1`, the EC50 was 30.9 µM and the IC50 worked out at 195 µM.

What is called EC50 is the concentration giving half of the maximal effect. A word on the IC50: it is the point on the concentration scale where inhibition reaches its midpoint. A higher IC50 goes with lower potency.
